{"source": "the kinase profiling compilation of Christmann-Franck et al. (2016)", "experiment_in_all_cases": "KINOMEscan competition binding", "details_in_all_cases": "compound 0.5 µM", "key": {"ACVRL1 (human)": {"molecular_target": "ACVRL1 (human) (UniProt P37023)"}, "AKT3 (human)": {"molecular_target": "AKT3 (human) (UniProt Q9Y243)"}, "CASK (human)": {"molecular_target": "CASK (human) (UniProt O14936)"}, "CDC2L2 (human)": {"molecular_target": "CDC2L2 (human) (UniProt Q9UQ88)", "sequence (Q9UQ88 whole entry, looked up)": "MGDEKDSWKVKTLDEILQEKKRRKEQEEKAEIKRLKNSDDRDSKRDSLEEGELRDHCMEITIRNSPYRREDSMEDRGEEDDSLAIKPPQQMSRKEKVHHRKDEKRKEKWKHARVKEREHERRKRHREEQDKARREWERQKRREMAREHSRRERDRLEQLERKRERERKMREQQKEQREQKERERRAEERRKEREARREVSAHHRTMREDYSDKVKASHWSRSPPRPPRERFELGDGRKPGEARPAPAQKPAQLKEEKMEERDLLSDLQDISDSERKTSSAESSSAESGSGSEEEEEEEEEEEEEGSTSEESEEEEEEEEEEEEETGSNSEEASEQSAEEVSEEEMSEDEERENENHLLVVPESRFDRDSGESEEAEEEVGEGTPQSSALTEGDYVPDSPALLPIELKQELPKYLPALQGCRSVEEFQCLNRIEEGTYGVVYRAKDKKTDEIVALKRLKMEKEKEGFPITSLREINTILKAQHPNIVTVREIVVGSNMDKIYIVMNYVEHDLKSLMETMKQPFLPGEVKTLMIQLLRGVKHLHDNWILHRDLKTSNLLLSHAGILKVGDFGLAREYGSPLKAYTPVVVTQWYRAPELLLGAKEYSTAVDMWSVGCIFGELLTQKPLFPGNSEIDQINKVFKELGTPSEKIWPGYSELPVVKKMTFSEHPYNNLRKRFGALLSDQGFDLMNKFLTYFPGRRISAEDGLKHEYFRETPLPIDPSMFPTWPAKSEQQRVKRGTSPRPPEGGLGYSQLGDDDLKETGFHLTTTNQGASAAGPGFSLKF"}, "CDC42BPA (human)": {"molecular_target": "CDC42BPA (human) (UniProt Q5VT25)"}, "CDK15 (human)": {"molecular_target": "CDK15 (human) (UniProt Q96Q40)"}, "CDK4 CCND1 (human)": {"molecular_target": "CDK4 CCND1 (human) (UniProt P11802+P24385)"}, "CLK4 (human)": {"molecular_target": "CLK4 (human) (UniProt Q9HAZ1)", "sequence (Q9HAZ1 whole entry, looked up)": "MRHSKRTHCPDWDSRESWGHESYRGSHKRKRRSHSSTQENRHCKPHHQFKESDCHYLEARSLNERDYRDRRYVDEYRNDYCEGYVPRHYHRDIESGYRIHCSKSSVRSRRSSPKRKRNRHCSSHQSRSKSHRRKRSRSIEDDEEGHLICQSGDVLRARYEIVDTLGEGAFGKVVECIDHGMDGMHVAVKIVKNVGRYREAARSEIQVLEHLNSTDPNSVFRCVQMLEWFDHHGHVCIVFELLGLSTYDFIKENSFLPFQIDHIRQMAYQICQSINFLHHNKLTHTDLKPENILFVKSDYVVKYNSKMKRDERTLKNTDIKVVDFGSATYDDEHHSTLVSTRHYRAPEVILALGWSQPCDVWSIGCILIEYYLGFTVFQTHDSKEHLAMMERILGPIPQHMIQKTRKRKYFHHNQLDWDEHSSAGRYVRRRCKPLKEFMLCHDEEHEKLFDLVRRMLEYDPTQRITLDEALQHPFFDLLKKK"}, "DMPK (human)": {"molecular_target": "DMPK (human) (UniProt Q09013)", "sequence (Q09013 whole entry, looked up)": "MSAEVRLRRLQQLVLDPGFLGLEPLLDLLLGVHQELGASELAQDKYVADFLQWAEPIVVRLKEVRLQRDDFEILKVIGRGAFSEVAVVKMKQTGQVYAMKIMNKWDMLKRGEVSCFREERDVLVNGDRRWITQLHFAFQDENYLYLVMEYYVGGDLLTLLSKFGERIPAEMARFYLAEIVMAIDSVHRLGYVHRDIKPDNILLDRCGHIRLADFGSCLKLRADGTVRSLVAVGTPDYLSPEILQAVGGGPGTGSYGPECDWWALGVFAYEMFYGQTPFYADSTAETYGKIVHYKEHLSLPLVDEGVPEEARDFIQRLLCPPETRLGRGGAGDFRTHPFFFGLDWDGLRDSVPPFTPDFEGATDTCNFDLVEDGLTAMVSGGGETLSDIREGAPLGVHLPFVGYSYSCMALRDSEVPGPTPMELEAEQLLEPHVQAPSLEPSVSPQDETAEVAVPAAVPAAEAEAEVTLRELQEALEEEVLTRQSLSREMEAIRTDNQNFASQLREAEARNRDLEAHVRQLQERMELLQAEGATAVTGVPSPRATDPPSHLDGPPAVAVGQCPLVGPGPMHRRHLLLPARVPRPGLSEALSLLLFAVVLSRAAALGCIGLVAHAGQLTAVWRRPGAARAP"}, "EIF2AK1 (human)": {"molecular_target": "EIF2AK1 (human) (UniProt Q9BQI3)"}, "ERN1 (human)": {"molecular_target": "ERN1 (human) (UniProt O75460)"}, "[1]": {"system": "KIT (human), P10721 [V559D]"}, "LIMK2 (human)": {"molecular_target": "LIMK2 (human) (UniProt P53671)"}, "MAK (human)": {"molecular_target": "MAK (human) (UniProt P20794)", "sequence (P20794 whole entry, looked up)": "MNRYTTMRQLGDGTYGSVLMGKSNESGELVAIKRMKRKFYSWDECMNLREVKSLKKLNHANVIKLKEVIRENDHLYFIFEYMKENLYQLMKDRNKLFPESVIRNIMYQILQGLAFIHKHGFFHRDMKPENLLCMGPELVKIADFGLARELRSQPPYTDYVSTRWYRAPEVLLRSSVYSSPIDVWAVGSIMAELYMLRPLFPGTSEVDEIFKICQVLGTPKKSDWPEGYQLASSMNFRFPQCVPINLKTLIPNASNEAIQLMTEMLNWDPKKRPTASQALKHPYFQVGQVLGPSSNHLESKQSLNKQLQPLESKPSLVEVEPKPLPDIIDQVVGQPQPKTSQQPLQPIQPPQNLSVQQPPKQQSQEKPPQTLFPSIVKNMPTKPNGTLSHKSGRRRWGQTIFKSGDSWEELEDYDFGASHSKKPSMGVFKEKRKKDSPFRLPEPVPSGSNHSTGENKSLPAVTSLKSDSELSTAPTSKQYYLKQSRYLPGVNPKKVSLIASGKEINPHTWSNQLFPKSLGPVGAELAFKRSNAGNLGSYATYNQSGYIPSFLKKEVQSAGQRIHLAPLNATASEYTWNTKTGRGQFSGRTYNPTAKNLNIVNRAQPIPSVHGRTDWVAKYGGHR"}, "MAP3K2 (human)": {"molecular_target": "MAP3K2 (human) (UniProt Q9Y2U5)"}, "MAP3K3 (human)": {"molecular_target": "MAP3K3 (human) (UniProt Q99759)"}, "MATK (human)": {"molecular_target": "MATK (human) (UniProt P42679)"}, "[2]": {"system": "MET (human), P08581 [M1250T]"}, "MST4 (human)": {"molecular_target": "MST4 (human) (UniProt Q9P289)"}, "MYLK2 (human)": {"molecular_target": "MYLK2 (human) (UniProt Q9H1R3)", "sequence (Q9H1R3 whole entry, looked up)": "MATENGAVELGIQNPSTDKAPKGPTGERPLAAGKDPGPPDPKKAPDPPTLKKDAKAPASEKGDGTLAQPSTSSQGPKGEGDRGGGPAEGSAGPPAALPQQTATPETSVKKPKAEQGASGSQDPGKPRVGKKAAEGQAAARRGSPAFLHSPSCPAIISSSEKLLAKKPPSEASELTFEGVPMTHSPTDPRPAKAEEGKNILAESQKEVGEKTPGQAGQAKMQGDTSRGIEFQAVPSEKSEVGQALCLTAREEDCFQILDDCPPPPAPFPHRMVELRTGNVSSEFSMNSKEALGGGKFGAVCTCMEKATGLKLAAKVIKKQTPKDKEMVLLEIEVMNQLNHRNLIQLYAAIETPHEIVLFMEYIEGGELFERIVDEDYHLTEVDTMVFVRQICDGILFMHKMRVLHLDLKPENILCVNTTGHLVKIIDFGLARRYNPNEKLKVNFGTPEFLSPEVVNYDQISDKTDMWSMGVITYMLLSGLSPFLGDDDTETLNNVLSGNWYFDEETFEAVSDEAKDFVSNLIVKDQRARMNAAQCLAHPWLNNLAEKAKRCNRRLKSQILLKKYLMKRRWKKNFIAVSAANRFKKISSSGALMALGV"}, "NTRK2 (human)": {"molecular_target": "NTRK2 (human) (UniProt Q16620)"}, "[3]": {"system": "PIK3CA (human), P42336 [E545K]"}, "[4]": {"system": "PIK3CA (human), P42336 [H1047Y]"}, "PLK1 (human)": {"molecular_target": "PLK1 (human) (UniProt P53350)"}, "PRKAA2 (human)": {"molecular_target": "PRKAA2 (human) (UniProt P54646)"}, "PRKCH (human)": {"molecular_target": "PRKCH (human) (UniProt P24723)"}, "RPS6KA5 KD1 (human)": {"molecular_target": "RPS6KA5 KD1 (human) (UniProt O75582)", "sequence (O75582 whole entry, looked up)": "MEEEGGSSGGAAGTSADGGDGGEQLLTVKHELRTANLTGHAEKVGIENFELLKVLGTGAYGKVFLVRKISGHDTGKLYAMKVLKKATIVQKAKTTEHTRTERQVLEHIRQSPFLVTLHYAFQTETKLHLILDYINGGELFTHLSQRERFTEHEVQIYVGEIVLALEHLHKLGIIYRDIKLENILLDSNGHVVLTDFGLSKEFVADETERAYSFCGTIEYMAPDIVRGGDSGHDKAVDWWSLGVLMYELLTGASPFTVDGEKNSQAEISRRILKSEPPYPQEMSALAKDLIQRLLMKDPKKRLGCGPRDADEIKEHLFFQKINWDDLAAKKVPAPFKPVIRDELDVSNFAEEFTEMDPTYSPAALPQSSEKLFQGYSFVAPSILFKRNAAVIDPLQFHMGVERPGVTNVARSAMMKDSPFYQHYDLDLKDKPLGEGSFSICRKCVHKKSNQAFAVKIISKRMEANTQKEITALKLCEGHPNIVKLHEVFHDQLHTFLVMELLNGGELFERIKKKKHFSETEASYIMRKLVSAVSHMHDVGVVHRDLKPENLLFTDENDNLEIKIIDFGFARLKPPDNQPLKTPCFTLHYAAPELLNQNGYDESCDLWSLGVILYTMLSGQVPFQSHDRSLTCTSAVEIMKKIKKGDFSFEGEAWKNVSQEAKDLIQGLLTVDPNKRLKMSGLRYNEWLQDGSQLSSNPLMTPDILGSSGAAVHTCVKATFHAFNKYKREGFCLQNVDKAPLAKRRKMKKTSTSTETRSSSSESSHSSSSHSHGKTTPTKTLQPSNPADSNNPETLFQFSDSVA"}, "SGK3 (human)": {"molecular_target": "SGK3 (human) (UniProt Q96BR1)", "sequence (Q96BR1 whole entry, looked up)": "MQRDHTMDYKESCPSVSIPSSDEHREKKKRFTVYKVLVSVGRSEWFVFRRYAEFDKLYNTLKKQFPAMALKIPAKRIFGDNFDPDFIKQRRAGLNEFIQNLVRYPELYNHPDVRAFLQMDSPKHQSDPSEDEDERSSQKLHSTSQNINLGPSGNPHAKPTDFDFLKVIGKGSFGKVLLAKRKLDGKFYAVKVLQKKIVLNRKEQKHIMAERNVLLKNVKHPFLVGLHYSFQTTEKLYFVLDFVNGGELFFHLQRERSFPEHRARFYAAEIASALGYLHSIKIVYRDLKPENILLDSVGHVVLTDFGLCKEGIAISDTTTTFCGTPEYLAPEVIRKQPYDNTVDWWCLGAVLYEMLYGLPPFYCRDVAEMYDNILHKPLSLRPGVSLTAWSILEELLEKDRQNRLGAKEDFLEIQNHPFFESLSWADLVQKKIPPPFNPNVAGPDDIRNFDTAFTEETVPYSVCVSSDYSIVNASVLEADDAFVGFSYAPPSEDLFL"}, "SIK3 (human)": {"molecular_target": "SIK3 (human) (UniProt Q9Y2K2)"}, "SLK (human)": {"molecular_target": "SLK (human) (UniProt Q9H2G2)"}, "SRPK1 (human)": {"molecular_target": "SRPK1 (human) (UniProt Q96SB4)"}, "STK10 (human)": {"molecular_target": "STK10 (human) (UniProt O94804)"}, "STK33 (human)": {"molecular_target": "STK33 (human) (UniProt Q9BYT3)"}, "STK35 (human)": {"molecular_target": "STK35 (human) (UniProt Q8TDR2)"}, "TESK1 (human)": {"molecular_target": "TESK1 (human) (UniProt Q15569)", "sequence (Q15569 whole entry, looked up)": "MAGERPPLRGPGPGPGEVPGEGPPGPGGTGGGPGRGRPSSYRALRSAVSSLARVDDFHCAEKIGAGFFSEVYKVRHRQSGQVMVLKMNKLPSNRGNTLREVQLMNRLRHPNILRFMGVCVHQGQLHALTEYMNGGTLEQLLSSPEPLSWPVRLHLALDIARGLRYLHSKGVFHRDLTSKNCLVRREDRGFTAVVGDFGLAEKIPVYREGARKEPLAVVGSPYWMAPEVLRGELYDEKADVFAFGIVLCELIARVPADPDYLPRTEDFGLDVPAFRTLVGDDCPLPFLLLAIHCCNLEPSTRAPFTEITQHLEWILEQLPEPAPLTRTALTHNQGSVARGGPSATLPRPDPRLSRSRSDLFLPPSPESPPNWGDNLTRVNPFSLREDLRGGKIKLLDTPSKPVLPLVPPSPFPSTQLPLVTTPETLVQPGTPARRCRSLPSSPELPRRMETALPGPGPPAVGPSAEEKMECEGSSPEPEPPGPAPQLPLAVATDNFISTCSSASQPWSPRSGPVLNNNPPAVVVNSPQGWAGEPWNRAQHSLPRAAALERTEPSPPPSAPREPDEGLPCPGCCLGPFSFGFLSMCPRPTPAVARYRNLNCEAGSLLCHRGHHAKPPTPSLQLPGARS"}, "TGFBR2 (human)": {"molecular_target": "TGFBR2 (human) (UniProt P37173)"}, "TTK (human)": {"molecular_target": "TTK (human) (UniProt P33981)"}}, "data": [{"smiles": "Cn1c2ccccc2c2c3c(c4c5ccccc5n(CCC#N)c4c21)CNC3=O", "values": [{"measurement": "kinase still bound, per cent of control", "setting": "ACVRL1 (human)", "result": 100, "unit": "%"}, {"measurement": "kinase still bound, per cent of control", "setting": "AKT3 (human)", "result": 100, "unit": "%"}, {"measurement": "kinase still bound, per cent of control", "setting": "CASK (human)", "result": 72, "unit": "%"}, {"measurement": "kinase still bound, per cent of control", "setting": "CDC2L2 (human)", "result": 84, "unit": "%"}, {"measurement": "kinase still bound, per cent of control", "setting": "CDC42BPA (human)", "result": 94, "unit": "%"}, {"measurement": "kinase still bound, per cent of control", "setting": "CDK15 (human)", "result": 100, "unit": "%"}, {"measurement": "kinase still bound, per cent of control", "setting": "CDK4 CCND1 (human)", "result": 57, "unit": "%"}, {"measurement": "kinase still bound, per cent of control", "setting": "CLK4 (human)", "result": 6.1, "unit": "%"}, {"measurement": "kinase still bound, per cent of control", "setting": "DMPK (human)", "result": 100, "unit": "%"}, {"measurement": "kinase still bound, per cent of control", "setting": "EIF2AK1 (human)", "result": 100, "unit": "%"}, {"measurement": "kinase still bound, per cent of control", "setting": "ERN1 (human)", "result": 43, "unit": "%"}, {"measurement": "kinase still bound, per cent of control", "setting": "[1]", "result": 71, "unit": "%"}, {"measurement": "kinase still bound, per cent of control", "setting": "LIMK2 (human)", "result": 100, "unit": "%"}, {"measurement": "kinase still bound, per cent of control", "setting": "MAK (human)", "result": 100, "unit": "%"}, {"measurement": "kinase still bound, per cent of control", "setting": "MAP3K2 (human)", "result": 0.1, "unit": "%"}, {"measurement": "kinase still bound, per cent of control", "setting": "MAP3K3 (human)", "result": 2.1, "unit": "%"}, {"measurement": "kinase still bound, per cent of control", "setting": "MATK (human)", "result": 67, "unit": "%"}, {"measurement": "kinase still bound, per cent of control", "setting": "[2]", "result": 100, "unit": "%"}, {"measurement": "kinase still bound, per cent of control", "setting": "MST4 (human)", "result": 100, "unit": "%"}, {"measurement": "kinase still bound, per cent of control", "setting": "MYLK2 (human)", "result": 58, "unit": "%"}, {"measurement": "kinase still bound, per cent of control", "setting": "NTRK2 (human)", "result": 1.2, "unit": "%"}, {"measurement": "kinase still bound, per cent of control", "setting": "[3]", "result": 100, "unit": "%"}, {"measurement": "kinase still bound, per cent of control", "setting": "[4]", "result": 100, "unit": "%"}, {"measurement": "kinase still bound, per cent of control", "setting": "PLK1 (human)", "result": 100, "unit": "%"}, {"measurement": "kinase still bound, per cent of control", "setting": "PRKAA2 (human)", "result": 73, "unit": "%"}, {"measurement": "kinase still bound, per cent of control", "setting": "PRKCH (human)", "result": 18, "unit": "%"}, {"measurement": "kinase still bound, per cent of control", "setting": "RPS6KA5 KD1 (human)", "result": 52, "unit": "%"}, {"measurement": "kinase still bound, per cent of control", "setting": "SGK3 (human)", "result": 72, "unit": "%"}, {"measurement": "kinase still bound, per cent of control", "setting": "SIK3 (human)", "result": 100, "unit": "%"}, {"measurement": "kinase still bound, per cent of control", "setting": "SLK (human)", "result": 69, "unit": "%"}, {"measurement": "kinase still bound, per cent of control", "setting": "SRPK1 (human)", "result": 5.6, "unit": "%"}, {"measurement": "kinase still bound, per cent of control", "setting": "STK10 (human)", "result": 28, "unit": "%"}, {"measurement": "kinase still bound, per cent of control", "setting": "STK33 (human)", "result": 1.5, "unit": "%"}, {"measurement": "kinase still bound, per cent of control", "setting": "STK35 (human)", "result": 73, "unit": "%"}, {"measurement": "kinase still bound, per cent of control", "setting": "TESK1 (human)", "result": 43, "unit": "%"}, {"measurement": "kinase still bound, per cent of control", "setting": "TGFBR2 (human)", "result": 100, "unit": "%"}, {"measurement": "kinase still bound, per cent of control", "setting": "TTK (human)", "result": 23, "unit": "%"}]}]}
